Reference: PubChem BioAssay AID248 (DTP/NCI, 2004)
Several values for one entry are separate records, joined by “and”; a condition that tells them apart may be missing. Identical values can stand only once. Inconclusive results and toxic doses are left out. No stated cut-off is given here; in the data, active means T/C of 150% or more; inactive means T/C below 125%.

Test system: L1210 leukemia ip in BDF1 mice, survival T/C
Assay: NCI In Vivo Anticancer Drug Screen. Data for tumor model L1210 Leukemia (intraperitoneal) in B6D2F1 (BDF1) mice
Conditions: endpoint: mean survival time, higher = longer survival
Summary of the method: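 Each compound was tested against a transplantable tumor grown in mice. The endpoint was survival, with treated animals benchmarked against vehicle controls as a simple ratio.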

[1] = dose: 100.0 mg/kg/injection, schedule: Q04DX003 (ip), vehicle: Klucel (hydroxypropylcellulose) (HPC)
[2] = dose: 200.0 mg/kg/injection, schedule: Q04DX003 (ip), vehicle: Klucel (hydroxypropylcellulose) (HPC)
[3] = dose: 400.0 mg/kg/injection, schedule: Q04DX003 (ip), vehicle: Klucel (hydroxypropylcellulose) (HPC)
[4] = dose: 100.0 mg/kg/injection, schedule: Q01DX009 (ip), vehicle: Klucel (hydroxypropylcellulose) (HPC)
[5] = dose: 200.0 mg/kg/injection, schedule: Q01DX009 (ip), vehicle: Klucel (hydroxypropylcellulose) (HPC)
[6] = dose: 400.0 mg/kg/injection, schedule: Q01DX009 (ip), vehicle: Klucel (hydroxypropylcellulose) (HPC)
[7] = dose: 100.0 mg/kg/injection, schedule: Q01DX001 (ip), vehicle: saline
[8] = dose: 200.0 mg/kg/injection, schedule: Q01DX001 (ip), vehicle: saline

Measured: T/C

N#Cc1ccc(C(=O)C=C(C(F)(F)F)C(F)(F)F)cc1
inactive: dose: 6.25 mg/kg/injection, schedule: Q01DX009 (ip), vehicle: other 95 % of control | dose: 12.5 mg/kg/injection, schedule: Q01DX009 (ip), vehicle: other 98 % of control

CCCCN(CCCC)C(=O)C1C=C2c3cccc4[nH]cc(c34)CC2N(C)C1 (centres undefined)
inactive: dose: 100.0 mg/kg/injection, schedule: Q01DX009 (ip), vehicle: water 104 % of control | dose: 200.0 mg/kg/injection, schedule: Q01DX009 (ip), vehicle: water 110 % of control

[O-]c1n[n+](C2CCCCC2)no1
inactive: dose: 5.0 mg/kg/injection, schedule: Q01DX001 (ip), vehicle: other 106 % of control | dose: 10.0 mg/kg/injection, schedule: Q01DX001 (ip), vehicle: other 101 % of control

O=C1C(Cl)=C(Cl)C(=O)C2=C1C1c3ccccc3C2c2ccccc21
inactive: [1] 86 % of control | [2] 94 % of control | [3] 89 % of control

CCN(CC)CC(=O)c1ccc(O)c(O)c1
inactive: dose: 53.0 mg/kg/injection, schedule: Q01DX Z (ip), vehicle: carboxymethylcellulose (CMC) 109 % of control | dose: 83.0 mg/kg/injection, schedule: Q01DX Z (ip), vehicle: carboxymethylcellulose (CMC) 120 % of control | dose: 125.0 mg/kg/injection, schedule: Q01DX Z (ip), vehicle: carboxymethylcellulose (CMC) 105 % of control | dose: 187.0 mg/kg/injection, schedule: Q01DX Z (ip), vehicle: carboxymethylcellulose (CMC) 115 % of control

N#Cc1ccc(O)cc1
inactive: dose: 100.0 mg/kg/injection, schedule: Q01DX005 (ip), vehicle: Klucel (hydroxypropylcellulose) (HPC) 105 % of control | [4] 99 % of control | dose: 100.0 mg/kg/injection, schedule: Q04DX002 (ip), vehicle: Klucel (hydroxypropylcellulose) (HPC) 106 % of control | dose: 200.0 mg/kg/injection, schedule: Q01DX005 (ip), vehicle: Klucel (hydroxypropylcellulose) (HPC) 105 % of control | [5] 96 % of control | dose: 200.0 mg/kg/injection, schedule: Q04DX002 (ip), vehicle: Klucel (hydroxypropylcellulose) (HPC) 117 % of control | dose: 400.0 mg/kg/injection, schedule: Q01DX005 (ip), vehicle: Klucel (hydroxypropylcellulose) (HPC) 108 % of control | dose: 400.0 mg/kg/injection, schedule: Q04DX002 (ip), vehicle: Klucel (hydroxypropylcellulose) (HPC) 87 % of control

CS(=O)(=O)OCCN(CCOS(C)(=O)=O)c1ccc(C=Nc2ccc(C(=O)O)cc2)c(Cl)c1
inactive: [1] 120 % of control | [2] 105 % of control | [3] 86 % of control

O=C(Nc1ccccc1)c1ccc2c(c1)C(=O)N(c1ccccc1)C2=O
inactive: dose: 100.0 mg/kg/injection, schedule: Q04DX002 (ip), vehicle: saline 90 % of control | dose: 200.0 mg/kg/injection, schedule: Q04DX002 (ip), vehicle: saline 87 % of control

CCCCCCCCCCCCCCCC[N+]1(Cc2ccccc2)CCOCC1
inactive: dose: 50.0 mg/kg/injection, schedule: Q01DX009 (ip), vehicle: Klucel (hydroxypropylcellulose) (HPC) 99 % of control | [4] 99 % of control

O=C(Nc1ccc(C(=O)Nc2cc(S(=O)(=O)O)cc3cccc(S(=O)(=O)O)c23)cc1)Nc1ccc(C(=O)Nc2cc(S(=O)(=O)O)cc3cccc(S(=O)(=O)O)c23)cc1
inactive: dose: 37.5 mg/kg/injection, schedule: Q04DX003 (ip), vehicle: carboxymethylcellulose (CMC) 97 % of control | dose: 75.0 mg/kg/injection, schedule: Q01DX001 (ip), vehicle: carboxymethylcellulose (CMC) 93 % of control | dose: 75.0 mg/kg/injection, schedule: Q04DX003 (ip), vehicle: carboxymethylcellulose (CMC) 101 % of control | dose: 150.0 mg/kg/injection, schedule: Q01DX001 (ip), vehicle: carboxymethylcellulose (CMC) 105 % of control | dose: 150.0 mg/kg/injection, schedule: Q04DX003 (ip), vehicle: carboxymethylcellulose (CMC) 95 % of control

O=NN(c1ccccc1)c1ccccc1
inactive: dose: 100.0 mg/kg/injection, schedule: Q01DX001 (ip), vehicle: Klucel (hydroxypropylcellulose) (HPC) 98 % of control | [4] 100 % of control | dose: 200.0 mg/kg/injection, schedule: Q01DX001 (ip), vehicle: Klucel (hydroxypropylcellulose) (HPC) 101 % of control | [5] 102 % of control | dose: 400.0 mg/kg/injection, schedule: Q01DX001 (ip), vehicle: Klucel (hydroxypropylcellulose) (HPC) 87 % of control | [6] 92 % of control

COc1ccc(CN2CCCN(Cc3ccc(OC)cc3OC)C2c2ccc(N(CCCl)CCCl)cc2F)c(OC)c1
inactive: dose: 50.0 mg/kg/injection, schedule: Q01DX001 (ip), vehicle: carboxymethylcellulose (CMC) 104 % of control | dose: 100.0 mg/kg/injection, schedule: Q01DX001 (ip), vehicle: carboxymethylcellulose (CMC) 98 % of control | dose: 200.0 mg/kg/injection, schedule: Q01DX001 (ip), vehicle: carboxymethylcellulose (CMC) 104 % of control | dose: 400.0 mg/kg/injection, schedule: Q01DX001 (ip), vehicle: carboxymethylcellulose (CMC) 106 % of control

COc1ccc([N+](=O)[O-])c2c1CONC2c1c(CO)cnc(C)c1O (centres undefined)
inactive: dose: 100.0 mg/kg/injection, schedule: Q04DX003 (ip), vehicle: acetone 90 % of control | dose: 200.0 mg/kg/injection, schedule: Q04DX003 (ip), vehicle: acetone 96 % of control | dose: 400.0 mg/kg/injection, schedule: Q04DX003 (ip), vehicle: acetone 89 % of control

CCOC(=O)C[Si](C)(c1ccccc1)c1ccccc1
inactive: [7] 108 % of control | [8] 94 % of control | dose: 400.0 mg/kg/injection, schedule: Q01DX001 (ip), vehicle: saline 89 % of control

Cc1ccc(NC(=O)NCCCOc2ccc(N3C(N)=NC(N)=NC3(C)C)cc2Cl)cc1S(=O)(=O)F
inactive: dose: 50.0 mg/kg/injection, schedule: Q01DX001 (ip), vehicle: saline 93 % of control | [7] 98 % of control | [8] 97 % of control

CC1(C)N=C(N)N=C(N)N1c1ccc(OCCCOc2ccc(S(=O)(=O)F)cc2)c(Cl)c1
inactive: dose: 25.0 mg/kg/injection, schedule: Q01DX009 (ip), vehicle: saline 100 % of control

CCOC(=O)/C=C/C(=O)OCC
inactive: [4] 100 % of control | [5] 103 % of control | [6] 108 % of control

CCc1cc(C(=O)NC(CCC(=O)O)C(=O)O)ccc1NCc1cnc2nc(N)[nH]c(=O)c2n1 (centres undefined)
inactive: dose: 50.0 mg/kg/injection, schedule: Q01DX001 (ip), vehicle: saline with Tween-80 106 % of control | dose: 100.0 mg/kg/injection, schedule: Q01DX001 (ip), vehicle: saline with Tween-80 100 % of control | dose: 200.0 mg/kg/injection, schedule: Q01DX001 (ip), vehicle: saline with Tween-80 100 % of control

Cc1n[nH]c(C)c1N=NN1CCOCC1
inactive: dose: 10.0 mg/kg/injection, schedule: Q01DX001 (ip), vehicle: saline 100 % of control and 107 % of control | dose: 20.0 mg/kg/injection, schedule: Q01DX001 (ip), vehicle: saline 107 % of control and 124 % of control | dose: 30.0 mg/kg/injection, schedule: Q01DX001 (ip), vehicle: saline 105 % of control

COc1ccc(NC(=O)Nc2c(C)cccc2C)cc1
inactive: dose: 100.0 mg/kg/injection, schedule: Q01DX009 (ip), vehicle: gum acacia 97 % of control | dose: 100.0 mg/kg/injection, schedule: Q04DX003 (ip), vehicle: gum acacia 97 % of control | dose: 200.0 mg/kg/injection, schedule: Q01DX009 (ip), vehicle: gum acacia 97 % of control | dose: 200.0 mg/kg/injection, schedule: Q04DX003 (ip), vehicle: gum acacia 92 % of control | dose: 400.0 mg/kg/injection, schedule: Q01DX009 (ip), vehicle: gum acacia 92 % of control | dose: 400.0 mg/kg/injection, schedule: Q04DX003 (ip), vehicle: gum acacia 91 % of control

CCOc1ccccc1NC(=O)Nc1ccccc1C
inactive: [4] 102 % of control | [1] 101 % of control | [5] 100 % of control | [2] 105 % of control | [6] 94 % of control | [3] 103 % of control
